Source: US4663329A, “Thienopyridinone derivatives and anti-bacterial compositions containing them” (Sanofi, priority 1984, dated 1987)
Values after ≈ are worked out from the molar mass of the structure shown. Read-outs that look alike come from different tables or passages of the source.

Assays:
Format in all cases: cell-based
[1] = test system: Providencia stuartii 5158; assay: In vitro antibacterial activity, MIC, Providencia stuartii 5158
Experimental: (§1) Tests carried out in vitro in accordance with the experimental procedure described hereunder have provided evidence of the antibacterial activity in question.
(§2) For this purpose, the M.I.C. were determined i.e. the minimal inhibiting concentrations of the compound under study acting on the growth of the bacteria at 37° C.
(§3) The serial dilutions method was used utilizing a MUELLER HINTON gelose medium at pH=7.4 and a bacterial inoculum of 10^4 units forming colonies. This inoculum was applied to the gelose by means of a multiple sowing device.
(§4) A scale of concentrations ranging from 100 to 0.05 μg/ml of compound to be studied was used starting from mother solutions titrating 1000 μg/ml, all the subsequent dilutions being effected in distilled water.

[2] = test system: Proteus morganii 1510; assay: In vitro antibacterial activity, MIC, Proteus morganii 1510
Experimental: as §1, §2, §3, §4

[3] = test system: Proteus mirabilis ATCC 21100; assay: In vitro antibacterial activity, MIC, Proteus mirabilis ATCC 21100
Experimental: as §1, §2, §3, §4

[4] = test system: Enterobacter cloacae P 99; assay: In vitro antibacterial activity, MIC, Enterobacter cloacae P 99
Experimental: as §1, §2, §3, §4

[5] = test system: Acinetobacter calcoaceticus C 1733; assay: In vitro antibacterial activity, MIC, Acinetobacter calcoaceticus C 1733
Experimental: as §1, §2, §3, §4

[6] = test system: Klebsiella pneumoniae R 30; assay: In vitro antibacterial activity, MIC, Klebsiella pneumoniae R 30
Experimental: as §1, §2, §3, §4

[7] = test system: Pseudomonas aeruginosa 8203; assay: In vitro antibacterial activity, MIC, Pseudomonas aeruginosa 8203; conditions: 37° C.
Experimental: as §1, §2, §3, §4

[8] = test system: Proteus vulgaris RL 99 bis; assay: In vitro antibacterial activity, MIC, Proteus vulgaris RL 99 bis
Experimental: as §1, §2, §3, §4

[9] = test system: Enterobacter hafniae RO 46; assay: In vitro antibacterial activity, MIC, Enterobacter hafniae RO 46
Experimental: as §1, §2, §3, §4

[10] = test system: Escherichia coli 54127 IP; assay: In vitro antibacterial activity, MIC, Escherichia coli 54127 IP
Experimental: as §1, §2, §3, §4

[11] = test system: Salmonella typhimurium A 222 IP; assay: In vitro antibacterial activity, MIC, Salmonella typhimurium A 222 IP
Experimental: as §1, §2, §3, §4

[12] = test system: Bacillus subtilis ATCC 6633; assay: In vitro antibacterial activity, MIC, Bacillus subtilis ATCC 6633
Experimental: as §1, §2, §3, §4

[13] = test system: Bordetella bronchiseptica ATCC 4617; assay: In vitro antibacterial activity, MIC, Bordetella bronchiseptica ATCC 4617
Experimental: as §1, §2, §3, §4

[14] = test system: Citrobacter freundii GN 346; assay: In vitro antibacterial activity, MIC, Citrobacter freundii GN 346
Experimental: as §1, §2, §3, §4

[15] = test system: Serratia liquefaciens 376; assay: In vitro antibacterial activity, MIC, Serratia liquefaciens 376; conditions: 37° C.
Experimental: as §1, §2, §3, §4

[16] = test system: Streptococcus faecalis 5855 IP; assay: In vitro antibacterial activity, MIC, Streptococcus faecalis 5855 IP; conditions: 37° C.
Experimental: as §1, §2, §3, §4

[17] = test system: Klebsiella pneumoniae ATCC 10031; assay: In vitro antibacterial activity, MIC, Klebsiella pneumoniae ATCC 10031
Experimental: as §1, §2, §3, §4

[18] = test system: Staphylococcus aureus 53154 IP; assay: In vitro antibacterial activity, MIC, Staphylococcus aureus 53154 IP; conditions: Staphylococcus aureus 53154 IP, 37° C., pH=7.4, inoculum 10^4
Experimental: as §1, §2, §3, §4

[19] = test system: Escherichia coli SOL RL 90; assay: In vitro antibacterial activity, MIC, Escherichia coli SOL RL 90
Experimental: as §1, §2, §3, §4

[20] = test system: Salmonella typhi ATCC 6539; assay: In vitro antibacterial activity, MIC, Salmonella typhi ATCC 6539
Experimental: as §1, §2, §3, §4

[21] = test system: Shigella sonnei R 018; assay: In vitro antibacterial activity, MIC, Shigella sonnei R 018; conditions: R018, 37° C., pH=7.4, inoculum 10^4
Experimental: as §1, §2, §3, §4

[22] = C1733, 37° C., pH=7.4, inoculum 10^4, read-out: MIC
[23] = pH=7.4, inoculum 10^4, read-out: MIC
[24] = Salmonella enterica, TYPHIMURIUM
[25] = ATCC4617, 37° C., pH=7.4, inoculum 10^4, read-out: MIC
[26] = Enterococcus faecalis, pH=7.4, inoculum 10^4, read-out: MIC
[27] = Klebsiella pneumoniae, ATCC10031
[28] = Morganella morganii, Proteus morganii 1510, 37° C., pH=7.4, inoculum 10^4, read-out: MIC
[29] = RL99BIS, Proteus vulgaris RL 99 bis, 37° C., pH=7.4, inoculum 10^4, read-out: MIC

## CCn1cc(C(=O)O)c(=O)c2cc(C=NOC)sc21 (single isomer, unassigned) [Compound H, 4,7-Dihydro-7-ethyl-2-methoxyiminomethyl-4-oxo-thieno[2,3-b]pyridine-5-carboxylic acid, anti-isomer]
[1]; Providencia stuartii 5158, 37° C., pH=7.4, inoculum 10^4
  MIC: 6.25 µg/mL (≈ 22.3 µM)
[2]; Proteus morganii 1510, 37° C., pH=7.4, inoculum 10^4
  MIC: 0.8 µg/mL (≈ 2.85 µM)
[3]; Proteus mirabilis ATCC 21100, 37° C., pH=7.4, inoculum 10^4
  MIC: 0.8 µg/mL (≈ 2.85 µM)
[4]; Enterobacter cloacae P 99, 37° C., pH=7.4, inoculum 10^4
  MIC: 3.12 µg/mL (≈ 11.1 µM)
[5]; 37° C., pH=7.4, inoculum 10^4
  MIC: > 25 µg/mL
[6]; Klebsiella pneumoniae R 30, 37° C., pH=7.4, inoculum 10^4
  MIC: 6.25 µg/mL (≈ 22.3 µM)
[7]; pH=7.4, inoculum 10^4
  MIC: > 25 µg/mL
[8]; Proteus vulgaris RL 99 bis, 37° C., pH=7.4, inoculum 10^4
  MIC: 1.56 µg/mL (≈ 5.57 µM)
[9]; Enterobacter hafniae RO 46, 37° C., pH=7.4, inoculum 10^4
  MIC: 3.12 µg/mL (≈ 11.1 µM)
[10]; Escherichia coli 54127 IP, 37° C., pH=7.4, inoculum 10^4
  MIC: 1.56 µg/mL (≈ 5.57 µM)
[11]; Salmonella typhimurium A 222 IP, 37° C., pH=7.4, inoculum 10^4
  MIC: 12.5 µg/mL (≈ 44.6 µM)
[12]; Bacillus subtilis ATCC 6633, 37° C., pH=7.4, inoculum 10^4
  MIC: 0.8 µg/mL (≈ 2.85 µM)
[13]; 37° C., pH=7.4, inoculum 10^4
  MIC: > 25 µg/mL
[14]; Citrobacter freundii GN 346, 37° C., pH=7.4, inoculum 10^4
  MIC: 6.25 µg/mL (≈ 22.3 µM)
[15]; pH=7.4, inoculum 10^4
  MIC: > 25 µg/mL
[16]; pH=7.4, inoculum 10^4
  MIC: > 100 µg/mL
[17]; Klebsiella pneumoniae ATCC 10031, 37° C., pH=7.4, inoculum 10^4
  MIC: 0.4 µg/mL (≈ 1.43 µM)
[18]
  MIC: > 50 µg/mL
[19]; Escherichia coli SOL RL 90, 37° C., pH=7.4, inoculum 10^4
  MIC: 6.25 µg/mL (≈ 22.3 µM)
[20]; Salmonella typhi ATCC 6539, 37° C., pH=7.4, inoculum 10^4
  MIC: 25 µg/mL (≈ 89.2 µM)

## CCn1cc(C(=O)O)c(=O)c2cc(C=NO)sc21 [Compound A, 4,7-Dihydro-7-ethyl-2-hydroxyiminomethyl-4-oxo-thieno[2,3-b]pyridine-5-carboxylic acid]
[1]; Providencia stuartii, 5158
  MIC: 6.25 µg/mL (≈ 23.5 µM)
[2]; Morganella morganii, 1510
  MIC: 1.56 µg/mL (≈ 5.86 µM)
[3]; Proteus mirabilis, ATCC21100
  MIC: 1.56 µg/mL (≈ 5.86 µM)
[4]; Enterobacter cloacae, P99
  MIC: 6.25 µg/mL (≈ 23.5 µM)
[5]; [22]
  MIC: > 100 µg/mL
[21]
  MIC: 1.56 µg/mL (≈ 5.86 µM)
[6]; Klebsiella pneumoniae, R30
  MIC: 6.25 µg/mL (≈ 23.5 µM)
[7]; [23]
  MIC: 50 µg/mL (≈ 188 µM)
[8]; Proteus vulgaris, RL99BIS
  MIC: 1.56 µg/mL (≈ 5.86 µM)
[9]; Hafnia alvei, RO46
  MIC: 1.56 µg/mL (≈ 5.86 µM)
[10]; Escherichia coli, 54127IP
  MIC: 3.12 µg/mL (≈ 11.7 µM)
[11]; [24]
  MIC: 6.25 µg/mL (≈ 23.5 µM)
[13]; [25]
  MIC: > 100 µg/mL
[14]; Citrobacter freundii, GN346
  MIC: 6.25 µg/mL (≈ 23.5 µM)
[15]; [23]
  MIC: 100 µg/mL (≈ 376 µM)
[16]; [26]
  MIC: > 100 µg/mL
[17]; [27]
  MIC: 1.56 µg/mL (≈ 5.86 µM)
[18]; read-out: MIC
  MIC: 25 µg/mL (≈ 93.9 µM)
[19]; Escherichia coli, SOLRL90
  MIC: 6.25 µg/mL (≈ 23.5 µM)
[20]; Salmonella enterica
  MIC: 6.25 µg/mL (≈ 23.5 µM)

## CCn1cc(C(=O)O)c(=O)c2cc(/C=N/O)sc21 [Compound B, 4,7-Dihydro-7-ethyl-2-hydroxyiminomethyl-4-oxo-thieno[2,3-b]pyridine-5-carboxylic acid, anti-isomer]
[1]; Providencia stuartii, 5158
  MIC: 6.25 µg/mL (≈ 23.5 µM)
[2]; [28]
  MIC: 0.4 µg/mL (≈ 1.5 µM)
[3]; Proteus mirabilis, ATCC21100
  MIC: 1.56 µg/mL (≈ 5.86 µM)
[4]; Enterobacter cloacae, P99
  MIC: 6.25 µg/mL (≈ 23.5 µM)
[5]; [22]
  MIC: > 100 µg/mL
[21]
  MIC: 0.8 µg/mL (≈ 3 µM)
[6]; Klebsiella pneumoniae, R30
  MIC: 6.25 µg/mL (≈ 23.5 µM)
[7]; [23]
  MIC: 100 µg/mL (≈ 376 µM)
[8]; [29]
  MIC: 0.8 µg/mL (≈ 3 µM)
[9]; Hafnia alvei, RO46
  MIC: 3.12 µg/mL (≈ 11.7 µM)
[10]; Escherichia coli, 54127IP
  MIC: 3.12 µg/mL (≈ 11.7 µM)
[11]; [24]
  MIC: 3.12 µg/mL (≈ 11.7 µM)
[12]; Bacillus subtilis, ATCC6633
  MIC: 6.25 µg/mL (≈ 23.5 µM)
[13]; [25]
  MIC: > 100 µg/mL
[14]; Citrobacter freundii, GN346
  MIC: 3.12 µg/mL (≈ 11.7 µM)
[15]; [23]
  MIC: 50 µg/mL (≈ 188 µM)
[16]; [26]
  MIC: > 100 µg/mL
[17]; [27]
  MIC: 1.56 µg/mL (≈ 5.86 µM)
[18]; read-out: MIC
  MIC: 12.5 µg/mL (≈ 46.9 µM)
[19]; Escherichia coli, SOLRL90
  MIC: 3.12 µg/mL (≈ 11.7 µM)
[20]; Salmonella enterica
  MIC: 6.25 µg/mL (≈ 23.5 µM)

## CCn1cc(C(=O)O)c(=O)c2cc(/C=N\O)sc21 [Compound C, 4,7-Dihydro-7-ethyl-2-hydroxyiminomethyl-4-oxo-thieno[2,3-b]pyridine-5-carboxylic acid, syn-isomer]
[1]; Providencia stuartii 5158, 37° C., pH=7.4, inoculum 10^4, read-out: MIC
  MIC: 12.5 µg/mL (≈ 46.9 µM)
[2]; [28]
  MIC: 0.4 µg/mL (≈ 1.5 µM)
[3]; ATCC21100, Proteus mirabilis ATCC 21100, 37° C., pH=7.4, inoculum 10^4, read-out: MIC
  MIC: 12.5 µg/mL (≈ 46.9 µM)
[4]; Enterobacter cloacae, P99
  MIC: 3.12 µg/mL (≈ 11.7 µM)
[5]; [22]
  MIC: > 100 µg/mL
[21]
  MIC: 0.8 µg/mL (≈ 3 µM)
[6]; Klebsiella pneumoniae, R30
  MIC: 6.25 µg/mL (≈ 23.5 µM)
[7]; [23]
  MIC: > 100 µg/mL
[8]; [29]
  MIC: 12.5 µg/mL (≈ 46.9 µM)
[9]; Hafnia alvei, RO46, Enterobacter hafniae RO 46, 37° C., pH=7.4, inoculum 10^4, read-out: MIC
  MIC: 12.5 µg/mL (≈ 46.9 µM)
[10]; Escherichia coli 54127 IP, 37° C., pH=7.4, inoculum 10^4, read-out: MIC
  MIC: 12.5 µg/mL (≈ 46.9 µM)
[11]; [24]
  MIC: 3.12 µg/mL (≈ 11.7 µM)
[12]; Bacillus subtilis, ATCC6633
  MIC: 6.25 µg/mL (≈ 23.5 µM)
[13]; [25]
  MIC: > 100 µg/mL
[14]; Citrobacter freundii, GN346
  MIC: 3.12 µg/mL (≈ 11.7 µM)
[15]; [23]
  MIC: 50 µg/mL (≈ 188 µM)
[16]; [26]
  MIC: > 100 µg/mL
[17]; ATCC10031, Klebsiella pneumoniae ATCC 10031, 37° C., pH=7.4, inoculum 10^4, read-out: MIC
  MIC: 12.5 µg/mL (≈ 46.9 µM)
[18]; read-out: MIC
  MIC: 12.5 µg/mL (≈ 46.9 µM)
[19]; Escherichia coli, SOLRL90
  MIC: 3.12 µg/mL (≈ 11.7 µM)
[20]; Salmonella enterica
  MIC: 3.12 µg/mL (≈ 11.7 µM)
